# Experimental data from ChEMBL document CHEMBL3352807, “Design, synthesis and anti-mycobacterial activity of 1,2,3,5-tetrasubstituted pyrrolyl-N-acetic acid derivatives” (Eur J Med Chem, 2014).
# What was measured:
# [1] = tested on: Mycobacterium tuberculosis; test: Antimycobacterial activity against Mycobacterium tuberculosis H37Rv ATCC 27294 after 28 days by agar dilution method; type: functional; conditions: H37Rv ATCC 27294, 672 h
# Pseudomonas aeruginosa = test: Antibacterial activity against Pseudomonas aeruginosa; type: functional
# [2] = tested on: Mycolicibacterium smegmatis; test: Antimycobacterial activity against Mycobacterium smegmatis assessed as growth inhibition after 32 hrs by spectrophotometry; type: functional
# [3] = Cytotoxicity against HEK293T cells at 50 uM after 72 hrs by MTT assay; type: cell-based, HEK-293T; conditions: human
# HEK-293T = test: Cytotoxicity against HEK293T cells after 72 hrs by MTT assay; type: cell-based; conditions: Homo sapiens
# [4] = Selectivity index, ratio of IC50 for HEK293T cells to MIC for Mycobacterium tuberculosis H37Rv ATCC 27294; type: toxicity, cell-based, HEK-293T; conditions: human, read-out: Selectivity Index
Structure (SMILES),MIC [1] [µM],MIC (Pseudomonas aeruginosa) [µM],GI50 [2] [µM],"inhibition at 72 h, 50 µM [3] [%]",IC50 (HEK-293T) [µM],selectivity ratio [4]
CC(C)C(C(=O)O)n1c(-c2ccccc2)cc(-c2ccco2)c1-c1ccco1 (stereo not given),66.7,400,,,,
O=C(Cn1c(-c2ccccc2)cc(-c2cccc3ccccc23)c1-c1ccco1)Nc1nc2ccccc2s1,2.97,286,61.4,68.8,< 50,16.8
O=C(Cn1c(-c2ccccc2)cc(-c2ccccc2)c1-c1ccco1)NCCc1c[nH]c2ccccc12,6.44,77.3,26.8,62.5,< 50,7.76
O=C(O)Cn1c(-c2ccccc2)cc(-c2cccc3ccccc23)c1-c1ccco1,7.95,13.3,,32,< 50,> 6.29
NNC(=O)c1ccncc1 [ISONIAZID],5.25,,41.6,,,
O=C(O)Cn1c(-c2ccccc2)cc(-c2ccccc2)c1-c1ccccc1,34.1,47.7,,97,< 50,1.47
O=C(Cn1c(-c2ccccc2)cc(-c2ccccc2)c1-c1ccccc1)Nc1nc2ccccc2s1,6.44,309,28.9,55,< 50,0.76
O=C(Cn1c(-c2ccccc2)cc(-c2ccco2)c1-c1ccco1)Nc1nc2ccccc2s1,29.5,354,14,65.1,< 50,1.7
CN[C@@H]1[C@H](O[C@H]2[C@H](O[C@H]3[C@H](O)[C@@H](O)[C@H](N=C(N)N)[C@@H](O)[C@@H]3N=C(N)N)O[C@@H](C)[C@]2(O)C=O)O[C@@H](CO)[C@H](O)[C@H]1O [STREPTOMYCIN],,2.68,,,,
CCc1nnc(NC(=O)Cn2c(-c3ccccc3)cc(-c3ccco3)c2-c2ccco2)s1,14.1,338,15.2,90.2,< 50,3.55
Cc1ccc(-c2c(-c3ccccc3)cc(-c3ccccc3)n2CC(=O)O)cc1,58,409,,78.2,< 50,0.86
O=C(Cn1c(-c2ccccc2)cc(-c2ccccc2)c1-c1ccco1)Nc1nc2ccccc2s1,13.2,316,44.6,89.8,< 50,3.8
CC1(C)S[C@@H]2[C@H](NC(=O)Cc3ccccc3)C(=O)N2[C@H]1C(=O)O [PENICILLIN G],,37.4,,,,
O=C(Cn1c(-c2ccccc2)cc(-c2ccccc2)c1-c1ccc(Br)cc1)Nc1ccccn1,6.15,295,45.9,75,< 50,8.13
CO[C@H]1/C=C/O[C@@]2(C)Oc3c(C)c(O)c4c(O)c(c(/C=N/N5CCN(C)CC5)c(O)c4c3C2=O)NC(=O)/C(C)=C\C=C\[C@H](C)[C@H](O)[C@@H](C)[C@@H](O)[C@@H](C)[C@H](OC(C)=O)[C@@H]1C [RIFAMPIN],0.29,,1.22,,,
CCc1nnc(NC(=O)Cn2c(-c3ccccc3)cc(-c3cccc4ccccc34)c2-c2ccco2)s1,3.1,298,66.8,59.7,< 50,16.1
O=C(Cn1c(-c2ccccc2)cc(-c2ccccc2)c1-c1ccc(Br)cc1)Nc1nc2ccccc2s1,11.1,266,48.3,86.7,< 50,4.51

Structure (SMILES),MIC [1] [µM],MIC (Pseudomonas aeruginosa) [µM],GI50 [2] [µM],"inhibition at 72 h, 50 µM [3] [%]",IC50 (HEK-293T) [µM],selectivity ratio [4]
O=C(Cn1c(-c2ccccc2)cc(-c2ccccc2)c1-c1ccco1)NCc1ccccc1,7.23,347,52.4,72.4,< 50,6.91
O=C(O)Cn1c(-c2cccc3ccccc23)cc(-c2ccccc2)c1-c1ccco1,31.8,47.7,,79.5,< 50,1.57
CCc1nnc(NC(=O)Cn2c(-c3ccccc3)cc(-c3ccccc3)c2-c2ccccc2)s1,13.5,323,20.4,49.3,< 50,3.71
O=C(Cn1c(-c2ccccc2)cc(-c2ccccc2)c1-c1ccccc1)Nc1ccccn1,7.28,175,26.7,62.9,< 50,6.86
CC(C)C(C(=O)O)n1c(-c2ccccc2)cc(-c2ccccc2)c1-c1ccco1 (stereo not given),130,97.4,,,,
O=C(Cn1c(-c2ccc3ccccc3c2)cc(-c2ccccc2)c1-c1ccco1)Nc1nc2ccccc2s1,2.97,286,,38.3,< 50,> 16.8
O=C(O)Cn1c(-c2ccccc2)cc(-c2ccco2)c1-c1ccco1,75.1,113,,,,
O=C(O)Cn1c(-c2ccccc2)cc(-c2ccccc2)c1-c1ccco1,18.2,54.7,,114,< 50,2.74
O=C(O)Cn1c(-c2ccccc2)cc(-c2ccccc2)c1-c1ccc(Cl)cc1,64.6,388,,37.4,< 50,1.55
CCc1nnc(NC(=O)Cn2c(-c3ccccc3)cc(-c3ccccc3)c2-c2ccc(Br)cc2)s1,46.1,277,30.6,,,
O=C(Cn1c(-c2ccccc2)cc(-c2ccccc2)c1-c1ccco1)Nc1ccccn1,29.8,358,24.8,69.3,< 50,1.68
CC[C@@H](CO)NCCN[C@@H](CC)CO [ETHAMBUTOL],27.5,,,,,
CC(C)CC(C(=O)O)n1c(-c2ccccc2)cc(-c2ccccc2)c1-c1ccco1 (stereo not given),7.83,376,,82.4,< 50,6.38
O=C(Cn1c(-c2ccc3ccccc3c2)cc(-c2ccccc2)c1-c1ccco1)NCc1ccccc1,51.9,311,,,,
CCc1nnc(NC(=O)Cn2c(-c3ccc4ccccc4c3)cc(-c3ccccc3)c2-c2ccco2)s1,24.8,298,73.9,83.6,< 50,2.02
CCc1nnc(NC(=O)Cn2c(-c3ccccc3)cc(-c3ccccc3)c2-c2ccco2)s1,27.6,331,23.3,81,< 50,1.81
O=C(O)Cn1c(-c2ccccc2)cc(-c2ccccc2)c1-c1ccc(Br)cc1,32.3,348,,,,
